Test results reported in ChEMBL document CHEMBL1201862, “PubChem BioAssay data set” (2004).
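Assay format: 96-well plates, 48-hour exposure. GI50: concentration for 50% inhibition of growth.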 The source made the active and inactive calls. Cut-off read from the data, not from the text of the source: active = GI50 up to about 1.1 µM and inactive = higher.

How the values were obtained:
Assay in all cases: DTP human tumour cell line panel, 48 h
DMS-114 = system: DMS-114
DMS-273 = system: DMS-273
HOP-18 = system: HOP-18
KM-20L2 = system: KM-20L2
M19-MEL = system: M19-MEL
SNB-78 = system: SNB-78
XF498 = system: XF498
Hs-578T = system: Hs-578T
RXF 631 = system: RXF 631

## Cc1cccc(C(C)(C)C)c1NC(=O)C(=O)C(c1cnc2ccccc2n1)[N+](=O)[O-] (centres undefined)
DMS-114
  GI50: > 100 µM (inactive)
DMS-273
  GI50: > 100 µM (inactive)
HOP-18
  GI50: > 100 µM (inactive)
KM-20L2
  GI50: > 100 µM (inactive)
M19-MEL
  GI50: > 100 µM (inactive)
SNB-78
  GI50: > 100 µM (inactive)
XF498
  GI50: > 100 µM (inactive)

## CC(NC(=O)OC(C)(C)C)C(=O)NC1CCCC1 (centres undefined)
Hs-578T
  GI50: > 100 µM (inactive)

## CCOC(=O)C(=O)Nc1ccc(C)c(C)c1
DMS-114
  GI50: > 40.9 µM (inactive)
DMS-273
  GI50: 34.8 µM (inactive)
KM-20L2
  GI50: > 100 µM (inactive)
M19-MEL
  GI50: > 67.5 µM (inactive)
RXF 631
  GI50: > 100 µM (inactive)
SNB-78
  GI50: > 100 µM (inactive)

## O=[N+]([O-])C(=C(Nc1ccccc1)Nc1ccccc1)C(Cl)=C(Cl)Cl
Hs-578T
  GI50: 21.7 µM (inactive)

## Cc1ccc(S(=O)(=O)n2cc(C=O)c(-c3cn(S(=O)(=O)c4ccc(C)cc4)cc3-c3cn(S(=O)(=O)c4ccc(C)cc4)cc3C=O)c2)cc1
Hs-578T
  GI50: > 100 µM (inactive)

## O=c1oc2ccc3ccccc3c2cc1-c1cn2c(n1)sc1ccccc12
Hs-578T
  GI50: > 100 µM (inactive)

## CN(C)c1ccc(/N=N/c2ccncc2)cc1
Hs-578T
  GI50: > 100 µM (inactive)

## Nn1c(CCCCCCCCc2nnc(COc3ccccc3)n2N)nnc1COc1ccccc1
Hs-578T
  GI50: > 100 µM (inactive)

## Cc1cc(N(CCOS(C)(=O)=O)CCOS(C)(=O)=O)ccc1/C=N/c1ccc(-c2csc(-c3ccc(Br)cc3)n2)cc1
Hs-578T
  GI50: 35.6 µM (inactive)

## O=[N+]([O-])c1ccc2c(c1)c1nn2CCCCOc2nn(c3ccc([N+](=O)[O-])cc23)CCCCO1
Hs-578T
  GI50: > 100 µM (inactive)

## COc1cc(/C=C/C(=O)Oc2ccccc2)ccc1C(=O)O/C=C/c1ccccc1
DMS-114
  GI50: > 100 µM (inactive)
DMS-273
  GI50: > 100 µM (inactive)
HOP-18
  GI50: > 100 µM (inactive)
Hs-578T
  GI50: > 100 µM (inactive)
KM-20L2
  GI50: > 100 µM (inactive)
M19-MEL
  GI50: > 100 µM (inactive)
SNB-78
  GI50: > 100 µM (inactive)
XF498
  GI50: > 100 µM (inactive)

## Cc1ccc(/N=N/C(=N\c2ccc(F)cc2)c2ccc(N(CCC#N)CCC#N)cc2)cc1
Hs-578T
  GI50: 53.7 µM (inactive)

## COc1cc(OC)c(/C=C\c2cc(/C=C/c3c(OC)cc(OC)cc3OC)c3ccccc3[n+]2C)c(OC)c1
Hs-578T
  GI50: 0.863 µM (active)

## CC1=N/C(=C\c2ccc(N)cc2)C(=O)N1Nc1nnc(NN2C(=O)/C(=C/c3ccc(N)cc3)N=C2C)c2ccccc12
DMS-273
  GI50: 77.3 µM (inactive)
HOP-18
  GI50: 27.1 µM (inactive)
KM-20L2
  GI50: > 100 µM (inactive)
M19-MEL
  GI50: 38.1 µM (inactive)

## CCOC(=O)CC(N1CC1)N1CC1
Hs-578T
  GI50: > 10 µM (inactive)

## O=C1O/C(=C\c2ccc(O)c(Br)c2)C(c2ccc(O)c(Cl)c2)=C1Br
Hs-578T
  GI50: 15.7 µM (inactive)

## CC(C)c1ccc(/C=C2\CSCC3=C2N=C2SCC(=O)N2C3c2ccc(C(C)C)cc2)cc1 (centres undefined)
Hs-578T
  GI50: > 100 µM (inactive)

## N=C(N)SCc1cn2ccccc2n1
DMS-114
  GI50: > 100 µM (inactive)
DMS-273
  GI50: > 100 µM (inactive)
HOP-18
  GI50: > 100 µM (inactive)
M19-MEL
  GI50: > 100 µM (inactive)
SNB-78
  GI50: > 100 µM (inactive)
XF498
  GI50: > 100 µM (inactive)

## O=C(Nc1ccccc1C(=O)NCCCO)/C(=C/c1ccccc1O)NC(=O)c1ccccc1
Hs-578T
  GI50: 26.2 µM (inactive)

## C/C(=N\NC(=O)Nc1ccccc1Cl)c1ccc(O)cc1
Hs-578T
  GI50: > 100 µM (inactive)

## CC1=C(C(=O)Nc2ccccc2C)C(c2ccc(C3C(C(=O)Nc4ccccc4C)=CNC=C3C(=O)Nc3ccccc3C)cc2)C(C(=O)Nc2ccccc2C)=C(C)N1
DMS-114
  GI50: 23.3 µM (inactive)
DMS-273
  GI50: 20.7 µM (inactive)
HOP-18
  GI50: 37 µM (inactive)
KM-20L2
  GI50: 14.7 µM (inactive)
M19-MEL
  GI50: 23.8 µM (inactive)
SNB-78
  GI50: 30.2 µM (inactive)
XF498
  GI50: 22.8 µM (inactive)

## C/C(=N/NC(=S)NCCc1ccccn1)c1cnccn1
Hs-578T
  GI50: 78.5 µM (inactive)

## CN(C)CCCNC(=O)c1cc(NC(=O)c2cc(NC(=O)c3cc(NC(=O)CCCn4ccc(CO)c4CO)cn3C)cn2C)cn1C
Hs-578T
  GI50: 22.1 µM (inactive)

## CC(C)=CC1C(C(=O)OCc2cc3c(cc2Cl)OCO3)C1(C)C (centres undefined)
Hs-578T
  GI50: 21.9 µM (inactive)

## C/C(Nc1ccc(Cl)cc1)=C1/CCOC1=O
Hs-578T
  GI50: > 100 µM (inactive)

## CN(C(=O)CCC(=O)O)c1ccccc1C(=O)O
Hs-578T
  GI50: > 100 µM (inactive)

## O=C(CCc1ccccc1)n1cccc1CO
Hs-578T
  GI50: 60.3 µM (inactive)

## O=C1OC2(c3ccccc3Oc3ccccc32)c2ccccc21
DMS-114
  GI50: > 100 µM (inactive)
DMS-273
  GI50: > 100 µM (inactive)
HOP-18
  GI50: > 100 µM (inactive)
KM-20L2
  GI50: > 100 µM (inactive)
M19-MEL
  GI50: > 100 µM (inactive)
SNB-78
  GI50: > 100 µM (inactive)

## OC(c1cc2ccccc2[nH]1)C(O)(c1cc2ccccc2[nH]1)c1cc2ccccc2[nH]1 (centres undefined)
DMS-114
  GI50: 7.31 µM (inactive)
DMS-273
  GI50: 17.9 µM (inactive)
KM-20L2
  GI50: 10.1 µM (inactive)
M19-MEL
  GI50: 7.06 µM (inactive)
RXF 631
  GI50: 17.4 µM (inactive)

## Fc1nc(Sc2ncnc3nc[nH]c23)nc(-c2c3ccccc3c3sc4ccccc4n23)n1
Hs-578T
  GI50: > 100 µM (inactive)

## CN(C)Cc1cc(/N=N/c2cccc(Cl)c2)ccc1O
Hs-578T
  GI50: 11.4 µM (inactive)

## C[C@]12CC[C@H]3[C@@H](CC=C4C[C@@H](O)CC[C@@]43C)[C@@H]1C/C(=C\c1ccncc1)[C@@H]2O
Hs-578T
  GI50: 39.3 µM (inactive)

## CC1(C)CN(c2ccccc2)C(=O)C1OC(=O)[C@@]1(C)C[C@@H]2C=C[C@H]1C2 (some centres undefined)
Hs-578T
  GI50: 31 µM (inactive)

## O=C1NC(=O)[C@H]2C3C=CC([C@@H]12)[C@@H]1C(=O)NC(=O)[C@H]31
Hs-578T
  GI50: > 100 µM (inactive)

## CC1C2CC=CC(=O)[C@@]2(C)CCC12OCCO2 (some centres undefined)
DMS-114
  GI50: > 100 µM (inactive)
DMS-273
  GI50: > 100 µM (inactive)
KM-20L2
  GI50: 49.9 µM (inactive)
M19-MEL
  GI50: > 100 µM (inactive)
SNB-78
  GI50: > 100 µM (inactive)

## CC(=O)OC12c3ccccc3-c3ccccc3C1C(C(=O)O)C2C(=O)O (centres undefined)
Hs-578T
  GI50: > 10 µM (inactive)

## CC1=C[C@@H](C)C[C@]2(C)CC[C@H](O2)[C@]23CC[C@](CO)(C[C@H](O2)[C@@H]2O[C@@](C)(CC2=O)[C@@H](O)[C@H]2CC[C@@]4(CCC[C@@H](O4)[C@H](C)C(=O)O[C@H]4C[C@H]([C@]5(O)OCC[C@H](C)[C@@H]5O)O[C@H]4C=C1)O2)O3
Hs-578T
  GI50: 0.00163 µM (active)

## c1ccc([P+](c2ccccc2)(c2ccccc2)c2ccc([P+](c3ccccc3)(c3ccccc3)c3ccccc3)c3ccccc23)cc1
Hs-578T
  GI50: 47.8 µM (inactive)

## Oc1cc(-c2ccc3ccccc3c2)nc2ncc(Cl)cc12
Hs-578T
  GI50: 5.27 µM (inactive)

## C=C1C(=O)O[C@@H]2[C@H]1CCC(C)=C1C=CC(=O)[C@]12C
DMS-114
  GI50: 14.3 µM (inactive)
DMS-273
  GI50: 17.3 µM (inactive)
HOP-18
  GI50: 15.9 µM (inactive)
RXF 631
  GI50: 11.3 µM (inactive)
SNB-78
  GI50: 4.61 µM (inactive)
